We go through one compound from publication PMC5259782, “Allosteric Inhibition of Phosphoenolpyruvate Carboxylases is Determined by a Single Amino Acid Residue in Cyanobacteria” (Scientific Reports, 2017).

Holding throughout (experiment): malate dehydrogenase-coupled NADH assay, residual activity
What all share (format): biochemical

One test concerns the target T1, SyPEPC (Synechocystis sp. PCC 6803, UniProt P74299).
T1 construct: gene ppc
T1 sequence (P74299 1-1034): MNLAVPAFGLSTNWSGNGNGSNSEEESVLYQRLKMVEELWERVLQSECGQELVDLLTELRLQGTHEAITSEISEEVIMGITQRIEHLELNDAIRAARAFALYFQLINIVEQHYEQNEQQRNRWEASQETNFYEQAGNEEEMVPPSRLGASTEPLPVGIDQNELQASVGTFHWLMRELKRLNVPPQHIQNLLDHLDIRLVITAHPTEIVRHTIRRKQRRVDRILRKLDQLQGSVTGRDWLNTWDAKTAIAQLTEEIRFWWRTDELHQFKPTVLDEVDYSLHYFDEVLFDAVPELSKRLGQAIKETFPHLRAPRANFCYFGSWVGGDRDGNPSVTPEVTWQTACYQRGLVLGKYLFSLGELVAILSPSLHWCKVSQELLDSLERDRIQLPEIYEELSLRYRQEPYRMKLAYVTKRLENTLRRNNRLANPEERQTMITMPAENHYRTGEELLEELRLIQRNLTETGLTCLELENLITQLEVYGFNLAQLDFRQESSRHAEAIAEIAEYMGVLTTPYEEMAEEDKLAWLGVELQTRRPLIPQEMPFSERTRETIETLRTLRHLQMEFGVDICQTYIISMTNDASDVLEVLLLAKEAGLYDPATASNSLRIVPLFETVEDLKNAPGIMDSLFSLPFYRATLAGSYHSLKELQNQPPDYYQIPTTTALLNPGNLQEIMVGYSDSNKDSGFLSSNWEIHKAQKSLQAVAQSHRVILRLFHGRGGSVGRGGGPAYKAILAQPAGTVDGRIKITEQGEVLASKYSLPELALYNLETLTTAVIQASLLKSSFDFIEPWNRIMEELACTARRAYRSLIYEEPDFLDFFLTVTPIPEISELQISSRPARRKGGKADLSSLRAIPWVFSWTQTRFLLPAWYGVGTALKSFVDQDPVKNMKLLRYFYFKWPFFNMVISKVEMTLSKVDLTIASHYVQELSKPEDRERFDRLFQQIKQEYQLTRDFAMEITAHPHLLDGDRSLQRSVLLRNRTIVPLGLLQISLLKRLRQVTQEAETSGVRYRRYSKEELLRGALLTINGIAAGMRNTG
The note with it: read-out: SyPEPC activity (in vitro). The text has this:
malate dehydrogenase-coupled NADH assay, residual activity on SyPEPC

In test [1] the target is T2, AnPEPC (Nostoc sp. PCC 7120 = FACHB-418, UniProt P28594, K946E).
T2 construct: gene ppc
Particulars: aspartate; allosteric.

The target of test [2] is T3, AnPEPC (Nostoc sp. PCC 7120 = FACHB-418, UniProt P28594).
T3 construct: gene ppc
Particulars: aspartate; allosteric.

T2 sequence (P28594 whole entry K946E): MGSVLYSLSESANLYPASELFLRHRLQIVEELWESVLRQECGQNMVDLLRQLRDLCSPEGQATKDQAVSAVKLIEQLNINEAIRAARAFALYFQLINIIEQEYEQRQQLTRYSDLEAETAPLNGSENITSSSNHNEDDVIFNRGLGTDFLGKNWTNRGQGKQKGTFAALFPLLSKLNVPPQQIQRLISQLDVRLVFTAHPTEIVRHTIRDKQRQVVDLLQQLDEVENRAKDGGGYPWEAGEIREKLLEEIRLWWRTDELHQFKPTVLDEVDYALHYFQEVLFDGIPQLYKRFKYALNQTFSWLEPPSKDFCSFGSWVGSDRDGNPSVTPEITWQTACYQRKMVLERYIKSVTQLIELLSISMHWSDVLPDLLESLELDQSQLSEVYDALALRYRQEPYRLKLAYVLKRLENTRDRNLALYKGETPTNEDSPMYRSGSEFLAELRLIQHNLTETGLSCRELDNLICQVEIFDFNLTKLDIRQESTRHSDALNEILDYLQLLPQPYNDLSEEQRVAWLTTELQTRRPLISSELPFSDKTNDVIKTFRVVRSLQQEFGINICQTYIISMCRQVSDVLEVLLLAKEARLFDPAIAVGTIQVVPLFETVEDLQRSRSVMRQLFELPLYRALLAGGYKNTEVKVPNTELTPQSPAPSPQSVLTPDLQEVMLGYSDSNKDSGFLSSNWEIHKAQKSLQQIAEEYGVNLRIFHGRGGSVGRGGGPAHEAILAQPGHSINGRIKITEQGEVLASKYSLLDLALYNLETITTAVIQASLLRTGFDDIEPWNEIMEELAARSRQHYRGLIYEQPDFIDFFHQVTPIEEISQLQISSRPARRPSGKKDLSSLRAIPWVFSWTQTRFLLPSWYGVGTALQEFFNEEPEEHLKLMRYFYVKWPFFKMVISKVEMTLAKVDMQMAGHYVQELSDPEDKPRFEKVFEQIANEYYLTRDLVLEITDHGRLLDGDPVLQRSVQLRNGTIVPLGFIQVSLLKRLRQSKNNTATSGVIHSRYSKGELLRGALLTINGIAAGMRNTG
T3 sequence (P28594 whole entry): as the sequence (P28594 whole entry K946E) above, with E946K counted along it

As to `N[C@@H](CC(=O)O)C(=O)O` [aspartate], the activity at 1000 µM on SyPEPC is 85.2 ± 10.7%. Also, the “% activity remaining” value at AnPEPC [1] and at AnPEPC [2] was “The inhibitory effect of aspartate on AnPEPC was not altered by this amino acid substitution” throughout.
